From PMC8550792, “Evolution of kinase polypharmacology across HSP90 drug discovery” (Cell Chemical Biology, 2021)

Key:
Assay in all cases: biochemical
Assay type in all cases: biochemical
382 unique human kinases [1] = target: T1, 382 unique human kinases (Homo sapiens, UniProt P22455); details: FGFR4, 10 uM; for remaining activity at 10 µM: read-out: % Enzyme Activity (relative to DMSO controls)
T1 construct: purchased Reaction Biology (HotSpot contract assay)

382 unique human kinases [2] = target: T2, 382 unique human kinases (Homo sapiens, UniProt P30530); details: kinase AXL, compound 10 uM; for remaining activity at 10 µM: read-out: % Enzyme Activity (relative to DMSO controls)
T2 construct: purchased Reaction Biology (HotSpot contract assay)
T2 sequence (P30530 26-894): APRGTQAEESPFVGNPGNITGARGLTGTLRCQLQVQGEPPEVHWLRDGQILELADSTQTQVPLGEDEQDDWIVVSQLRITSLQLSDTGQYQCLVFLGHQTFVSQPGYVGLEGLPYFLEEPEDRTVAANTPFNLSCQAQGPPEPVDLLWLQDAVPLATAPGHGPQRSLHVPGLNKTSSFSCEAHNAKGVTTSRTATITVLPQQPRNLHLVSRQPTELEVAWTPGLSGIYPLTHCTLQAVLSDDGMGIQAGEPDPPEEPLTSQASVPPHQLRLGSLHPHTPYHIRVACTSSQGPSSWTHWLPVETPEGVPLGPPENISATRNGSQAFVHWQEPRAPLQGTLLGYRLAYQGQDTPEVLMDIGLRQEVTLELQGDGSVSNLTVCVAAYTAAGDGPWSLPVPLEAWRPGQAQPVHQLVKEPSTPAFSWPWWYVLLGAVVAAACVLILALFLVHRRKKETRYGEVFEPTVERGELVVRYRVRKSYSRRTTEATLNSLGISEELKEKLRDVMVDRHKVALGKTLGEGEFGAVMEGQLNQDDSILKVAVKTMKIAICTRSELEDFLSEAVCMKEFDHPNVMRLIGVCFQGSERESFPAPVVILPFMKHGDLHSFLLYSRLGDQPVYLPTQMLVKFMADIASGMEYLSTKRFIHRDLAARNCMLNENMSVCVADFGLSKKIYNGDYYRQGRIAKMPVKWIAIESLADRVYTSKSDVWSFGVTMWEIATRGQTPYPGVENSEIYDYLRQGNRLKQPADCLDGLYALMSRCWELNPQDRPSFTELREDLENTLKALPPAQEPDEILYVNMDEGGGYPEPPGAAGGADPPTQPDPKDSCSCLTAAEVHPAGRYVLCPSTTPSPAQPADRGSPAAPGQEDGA

382 unique human kinases [3] = target: T3, 382 unique human kinases (Homo sapiens, UniProt Q86Z02); details: HIPK1, compound at 10 uM, duplicate values; for remaining activity at 10 µM: read-out: % Enzyme Activity (relative to DMSO controls)
T3 construct: purchased Reaction Biology (HotSpot contract assay)

382 unique human kinases [4] = target: T4, 382 unique human kinases (Homo sapiens, UniProt Q9UM73, F1174L); details: ALK (F1174L), 10 uM; for remaining activity at 10 µM: read-out: % Enzyme Activity (relative to DMSO controls)
T4 construct: purchased Reaction Biology (HotSpot contract assay)

382 unique human kinases [5] = target: T5, 382 unique human kinases (Homo sapiens, UniProt Q9UM73, G1269S); details: ALK (G1269S), 10 uM; for remaining activity at 10 µM: read-out: % Enzyme Activity (relative to DMSO controls)
T5 construct: purchased Reaction Biology (HotSpot contract assay)

382 unique human kinases [6] = target: T6, 382 unique human kinases (Homo sapiens, UniProt P06241, Y531F); details: FYN (Y531F), [ATP] 5 µM, compound 10 uM; for remaining activity at 10 µM: read-out: % Enzyme Activity (relative to DMSO controls)
T6 construct: purchased Reaction Biology (HotSpot contract assay)

382 unique human kinases [7] = target: T7, 382 unique human kinases (Homo sapiens, UniProt P28482); details: ERK2/MAPK1, 10 uM; for remaining activity at 10 µM: read-out: % Enzyme Activity (relative to DMSO controls)
T7 construct: purchased Reaction Biology (HotSpot contract assay)

382 unique human kinases [8] = target: T8, 382 unique human kinases (Homo sapiens, UniProt P49840); details: GSK3a, [ATP] 30 µM, compound 10 uM; for remaining activity at 10 µM: read-out: % Enzyme Activity (relative to DMSO controls)
T8 construct: purchased Reaction Biology (HotSpot contract assay)

382 unique human kinases [9] = target: T9, 382 unique human kinases (Homo sapiens, UniProt Q86SG6); details: NEK8, [ATP] 100 µM, compound 10 uM; for remaining activity at 10 µM: read-out: % Enzyme Activity (relative to DMSO controls)
T9 construct: purchased Reaction Biology (HotSpot contract assay)
T9 sequence (Q86SG6 1-692): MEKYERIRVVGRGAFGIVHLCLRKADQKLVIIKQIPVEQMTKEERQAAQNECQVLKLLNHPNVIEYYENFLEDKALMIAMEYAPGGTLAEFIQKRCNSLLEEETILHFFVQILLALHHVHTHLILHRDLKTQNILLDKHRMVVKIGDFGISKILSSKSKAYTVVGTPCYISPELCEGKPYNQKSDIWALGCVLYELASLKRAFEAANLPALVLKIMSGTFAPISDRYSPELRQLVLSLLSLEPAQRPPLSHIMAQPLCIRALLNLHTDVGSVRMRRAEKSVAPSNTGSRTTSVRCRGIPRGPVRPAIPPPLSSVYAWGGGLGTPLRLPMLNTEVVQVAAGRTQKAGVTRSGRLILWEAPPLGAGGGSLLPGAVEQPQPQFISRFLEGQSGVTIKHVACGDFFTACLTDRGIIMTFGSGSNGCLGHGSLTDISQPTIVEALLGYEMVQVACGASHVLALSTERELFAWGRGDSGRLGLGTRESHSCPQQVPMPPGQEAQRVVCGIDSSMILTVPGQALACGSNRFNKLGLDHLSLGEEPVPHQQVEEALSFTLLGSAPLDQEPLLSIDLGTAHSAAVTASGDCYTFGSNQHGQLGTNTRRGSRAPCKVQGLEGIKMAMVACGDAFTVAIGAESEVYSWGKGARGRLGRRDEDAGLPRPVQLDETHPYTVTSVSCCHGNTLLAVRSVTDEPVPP

382 unique human kinases [10] = target: T10, 382 unique human kinases (Homo sapiens, UniProt Q86YV6); details: MYLK4, [ATP] 50 µM, compound 10 uM; for remaining activity at 10 µM: read-out: % Enzyme Activity (relative to DMSO controls)
T10 construct: purchased Reaction Biology (HotSpot contract assay)
T10 sequence (Q86YV6 1-388): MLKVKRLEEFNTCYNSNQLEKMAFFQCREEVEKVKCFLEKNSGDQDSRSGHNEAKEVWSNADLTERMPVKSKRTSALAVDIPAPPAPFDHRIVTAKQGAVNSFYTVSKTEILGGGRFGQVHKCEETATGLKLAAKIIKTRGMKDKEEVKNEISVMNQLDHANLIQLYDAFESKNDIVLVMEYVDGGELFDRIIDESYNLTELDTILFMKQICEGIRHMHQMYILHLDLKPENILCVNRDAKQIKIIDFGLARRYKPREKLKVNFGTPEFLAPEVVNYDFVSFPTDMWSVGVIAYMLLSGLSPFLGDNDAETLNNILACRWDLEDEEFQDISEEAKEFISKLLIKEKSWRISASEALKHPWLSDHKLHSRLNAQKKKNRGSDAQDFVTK

382 unique human kinases [11] = target: T11, 382 unique human kinases (Homo sapiens, UniProt Q9UM73, T1151M); details: ALK (T1151M), [ATP] 50 µM, compound 10 uM; for remaining activity at 10 µM: read-out: % Enzyme Activity (relative to DMSO controls)
T11 construct: purchased Reaction Biology (HotSpot contract assay)
T11 sequence (Q9UM73 19-1620 T1151M): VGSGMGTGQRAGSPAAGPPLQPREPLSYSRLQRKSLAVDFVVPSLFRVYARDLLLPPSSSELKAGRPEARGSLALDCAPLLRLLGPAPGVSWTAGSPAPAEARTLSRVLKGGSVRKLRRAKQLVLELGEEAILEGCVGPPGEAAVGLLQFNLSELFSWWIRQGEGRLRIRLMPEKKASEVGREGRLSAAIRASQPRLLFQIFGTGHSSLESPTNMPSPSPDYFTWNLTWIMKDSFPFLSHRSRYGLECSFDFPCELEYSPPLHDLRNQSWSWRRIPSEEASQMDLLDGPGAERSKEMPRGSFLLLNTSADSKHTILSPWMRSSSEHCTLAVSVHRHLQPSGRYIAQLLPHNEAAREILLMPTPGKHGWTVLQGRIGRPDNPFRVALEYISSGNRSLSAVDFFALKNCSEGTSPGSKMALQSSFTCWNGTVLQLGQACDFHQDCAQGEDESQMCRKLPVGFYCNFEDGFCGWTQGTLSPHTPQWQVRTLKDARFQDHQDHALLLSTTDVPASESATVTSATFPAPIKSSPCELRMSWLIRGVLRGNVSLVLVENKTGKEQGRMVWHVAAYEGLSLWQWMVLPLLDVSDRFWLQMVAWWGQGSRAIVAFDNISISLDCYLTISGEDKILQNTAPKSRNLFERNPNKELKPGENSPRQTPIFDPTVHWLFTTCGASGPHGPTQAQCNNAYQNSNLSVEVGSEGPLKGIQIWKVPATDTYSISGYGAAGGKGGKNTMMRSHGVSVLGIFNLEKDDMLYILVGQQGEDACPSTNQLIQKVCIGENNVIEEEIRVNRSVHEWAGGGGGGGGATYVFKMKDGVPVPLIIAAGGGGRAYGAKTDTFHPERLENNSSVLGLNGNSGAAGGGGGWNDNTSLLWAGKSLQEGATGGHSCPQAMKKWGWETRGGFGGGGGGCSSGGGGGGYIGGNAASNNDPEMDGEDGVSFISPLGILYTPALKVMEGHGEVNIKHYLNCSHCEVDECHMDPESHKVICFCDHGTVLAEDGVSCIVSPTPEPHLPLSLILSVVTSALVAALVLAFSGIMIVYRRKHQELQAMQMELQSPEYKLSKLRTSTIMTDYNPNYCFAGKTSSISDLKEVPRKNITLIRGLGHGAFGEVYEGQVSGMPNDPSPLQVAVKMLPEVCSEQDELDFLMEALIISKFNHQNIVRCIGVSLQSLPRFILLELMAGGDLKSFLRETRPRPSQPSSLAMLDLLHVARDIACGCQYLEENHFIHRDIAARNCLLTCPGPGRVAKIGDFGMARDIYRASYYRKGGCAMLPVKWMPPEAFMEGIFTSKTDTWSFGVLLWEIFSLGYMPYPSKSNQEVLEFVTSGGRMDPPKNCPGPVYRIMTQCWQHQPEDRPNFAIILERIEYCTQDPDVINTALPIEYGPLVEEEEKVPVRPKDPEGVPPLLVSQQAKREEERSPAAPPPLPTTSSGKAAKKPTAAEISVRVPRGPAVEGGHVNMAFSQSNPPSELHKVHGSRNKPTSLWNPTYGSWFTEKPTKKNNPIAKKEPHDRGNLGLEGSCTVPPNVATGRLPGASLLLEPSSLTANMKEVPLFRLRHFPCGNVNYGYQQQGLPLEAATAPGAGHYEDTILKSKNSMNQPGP

T8 sequence (P49840 whole entry): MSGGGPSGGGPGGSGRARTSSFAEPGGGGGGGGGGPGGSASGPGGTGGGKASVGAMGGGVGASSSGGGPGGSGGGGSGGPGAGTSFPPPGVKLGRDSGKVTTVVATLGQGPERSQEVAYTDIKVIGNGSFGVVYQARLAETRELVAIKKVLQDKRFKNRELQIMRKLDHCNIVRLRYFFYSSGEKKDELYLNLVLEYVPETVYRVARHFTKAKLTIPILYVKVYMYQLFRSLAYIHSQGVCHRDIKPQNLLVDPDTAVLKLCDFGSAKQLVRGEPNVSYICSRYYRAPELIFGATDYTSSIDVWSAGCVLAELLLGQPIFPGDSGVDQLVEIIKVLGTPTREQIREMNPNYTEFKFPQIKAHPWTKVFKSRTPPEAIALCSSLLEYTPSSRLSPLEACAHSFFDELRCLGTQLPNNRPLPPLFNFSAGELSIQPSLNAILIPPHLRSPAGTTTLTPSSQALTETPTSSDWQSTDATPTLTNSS
T7 sequence (P28482 whole entry): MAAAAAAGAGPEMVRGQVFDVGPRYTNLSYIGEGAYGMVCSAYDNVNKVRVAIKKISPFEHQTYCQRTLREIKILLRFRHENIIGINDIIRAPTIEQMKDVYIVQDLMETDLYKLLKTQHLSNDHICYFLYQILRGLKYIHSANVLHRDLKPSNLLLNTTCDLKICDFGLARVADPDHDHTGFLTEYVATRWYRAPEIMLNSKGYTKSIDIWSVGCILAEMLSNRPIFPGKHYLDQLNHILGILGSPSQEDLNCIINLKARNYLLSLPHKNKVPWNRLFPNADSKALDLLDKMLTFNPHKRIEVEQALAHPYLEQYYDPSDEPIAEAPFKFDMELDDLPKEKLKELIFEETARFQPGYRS
T4 sequence (Q9UM73 19-1620 F1174L): as the sequence (Q9UM73 19-1620 T1151M) above, with M1133T, F1156L counted along it
T3 sequence (Q86Z02 whole entry): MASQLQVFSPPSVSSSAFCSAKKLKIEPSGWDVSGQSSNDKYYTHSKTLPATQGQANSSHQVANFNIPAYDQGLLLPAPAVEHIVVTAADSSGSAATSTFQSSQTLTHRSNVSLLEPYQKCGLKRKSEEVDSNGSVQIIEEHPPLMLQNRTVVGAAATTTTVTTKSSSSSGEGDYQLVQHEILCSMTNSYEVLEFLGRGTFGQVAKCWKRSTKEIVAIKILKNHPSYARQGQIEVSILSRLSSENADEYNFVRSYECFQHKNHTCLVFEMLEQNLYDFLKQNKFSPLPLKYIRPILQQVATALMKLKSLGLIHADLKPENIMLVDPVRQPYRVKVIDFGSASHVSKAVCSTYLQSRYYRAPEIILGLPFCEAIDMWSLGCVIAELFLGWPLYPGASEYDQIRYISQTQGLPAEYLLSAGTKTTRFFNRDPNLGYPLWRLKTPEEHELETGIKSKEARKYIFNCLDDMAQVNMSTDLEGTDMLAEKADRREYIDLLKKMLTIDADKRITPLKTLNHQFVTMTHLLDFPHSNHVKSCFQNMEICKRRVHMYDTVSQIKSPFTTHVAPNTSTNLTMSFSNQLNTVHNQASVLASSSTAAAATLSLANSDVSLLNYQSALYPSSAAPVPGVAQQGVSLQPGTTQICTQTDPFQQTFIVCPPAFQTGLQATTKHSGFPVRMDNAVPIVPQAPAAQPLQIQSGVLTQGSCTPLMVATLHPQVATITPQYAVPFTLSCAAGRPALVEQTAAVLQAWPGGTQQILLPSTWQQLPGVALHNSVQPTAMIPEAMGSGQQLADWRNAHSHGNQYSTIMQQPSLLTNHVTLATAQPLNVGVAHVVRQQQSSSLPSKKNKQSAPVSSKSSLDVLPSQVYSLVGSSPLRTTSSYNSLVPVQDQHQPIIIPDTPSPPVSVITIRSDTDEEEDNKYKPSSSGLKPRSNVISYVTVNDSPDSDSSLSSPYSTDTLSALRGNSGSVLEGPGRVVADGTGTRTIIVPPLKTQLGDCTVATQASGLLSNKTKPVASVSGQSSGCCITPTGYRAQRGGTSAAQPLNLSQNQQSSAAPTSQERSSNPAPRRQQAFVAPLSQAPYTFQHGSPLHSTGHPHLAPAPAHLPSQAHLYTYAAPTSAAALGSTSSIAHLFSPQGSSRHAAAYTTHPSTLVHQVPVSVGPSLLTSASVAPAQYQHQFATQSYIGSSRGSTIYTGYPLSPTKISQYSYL
T5 sequence (Q9UM73 19-1620 G1269S): as the sequence (Q9UM73 19-1620 T1151M) above, with M1133T, G1251S counted along it
T1 sequence (P22455 22-802): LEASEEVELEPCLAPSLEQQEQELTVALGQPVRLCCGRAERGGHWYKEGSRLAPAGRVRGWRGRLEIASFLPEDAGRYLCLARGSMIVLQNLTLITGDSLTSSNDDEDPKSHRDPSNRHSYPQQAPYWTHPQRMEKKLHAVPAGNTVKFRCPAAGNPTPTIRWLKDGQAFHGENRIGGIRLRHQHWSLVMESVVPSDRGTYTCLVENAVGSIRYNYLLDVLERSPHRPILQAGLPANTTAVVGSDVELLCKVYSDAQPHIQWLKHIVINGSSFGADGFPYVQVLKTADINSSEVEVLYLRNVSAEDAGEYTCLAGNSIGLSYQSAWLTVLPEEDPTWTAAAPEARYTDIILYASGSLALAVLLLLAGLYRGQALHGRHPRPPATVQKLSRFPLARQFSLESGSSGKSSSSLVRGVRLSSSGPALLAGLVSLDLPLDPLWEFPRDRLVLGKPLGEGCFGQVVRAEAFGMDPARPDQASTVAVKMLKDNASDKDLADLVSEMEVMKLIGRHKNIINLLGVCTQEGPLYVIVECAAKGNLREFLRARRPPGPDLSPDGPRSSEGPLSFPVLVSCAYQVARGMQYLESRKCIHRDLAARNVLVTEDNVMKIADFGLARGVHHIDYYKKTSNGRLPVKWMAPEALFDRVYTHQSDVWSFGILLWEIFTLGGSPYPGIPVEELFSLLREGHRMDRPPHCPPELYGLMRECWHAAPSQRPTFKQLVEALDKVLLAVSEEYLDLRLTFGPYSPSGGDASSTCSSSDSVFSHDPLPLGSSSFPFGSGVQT
T6 sequence (P06241 whole entry Y531F): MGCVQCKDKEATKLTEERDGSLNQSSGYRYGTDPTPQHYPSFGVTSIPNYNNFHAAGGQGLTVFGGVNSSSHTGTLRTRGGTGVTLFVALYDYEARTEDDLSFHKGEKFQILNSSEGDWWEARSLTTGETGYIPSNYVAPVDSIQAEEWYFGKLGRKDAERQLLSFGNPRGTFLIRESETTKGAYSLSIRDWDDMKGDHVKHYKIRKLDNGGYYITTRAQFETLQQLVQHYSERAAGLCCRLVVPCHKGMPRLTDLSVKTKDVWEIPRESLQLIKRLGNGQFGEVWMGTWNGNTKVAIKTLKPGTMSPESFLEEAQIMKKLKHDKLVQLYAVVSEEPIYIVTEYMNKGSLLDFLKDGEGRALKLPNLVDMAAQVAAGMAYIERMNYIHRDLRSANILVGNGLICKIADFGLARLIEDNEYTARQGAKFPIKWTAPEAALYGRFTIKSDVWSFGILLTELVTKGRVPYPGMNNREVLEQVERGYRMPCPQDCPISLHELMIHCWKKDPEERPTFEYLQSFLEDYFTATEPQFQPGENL

SMILES | remaining activity at 10 µM (382 unique human kinases [1]) | remaining activity at 10 µM (382 unique human kinases [2]) | remaining activity at 10 µM (382 unique human kinases [3]) | remaining activity at 10 µM (382 unique human kinases [4]) | remaining activity at 10 µM (382 unique human kinases [5]) | remaining activity at 10 µM (382 unique human kinases [6]) | remaining activity at 10 µM (382 unique human kinases [7]) | remaining activity at 10 µM (382 unique human kinases [8]) | remaining activity at 10 µM (382 unique human kinases [9]) | remaining activity at 10 µM (382 unique human kinases [10]) | remaining activity at 10 µM (382 unique human kinases [11]) | also measured
CC(C)c1cc(-c2n[nH]c(=O)n2-c2ccc3c(ccn3C)c2)c(O)cc1O [Ganetespib (STA9090)] | 71.5% | 84% | 133% | 63.6% | 74.6% | – | – | – | – | – | – | –
CCNC(=O)c1noc(-c2cc(C(C)C)c(O)cc2O)c1-c1ccc(CN2CCOCC2)cc1 [Luminespib] | – | – | – | – | – | 24.2% | 94.6% | 96.4% | 94.8% | 96.7% | 99.2% | % Enzyme Activity (relative to DMSO controls) (382 unique human kinases [6]): 23.48%; % Enzyme Activity (relative to DMSO controls) (382 unique human kinases [7]): 93.52%; % Enzyme Activity (relative to DMSO controls) (382 unique human kinases [8]): 93.84%; % Enzyme Activity (relative to DMSO controls) (382 unique human kinases [9]): 93.87%; % Enzyme Activity (relative to DMSO controls) (382 unique human kinases [10]): 95.56%; % Enzyme Activity (relative to DMSO controls) (382 unique human kinases [11]): 99.07%
CCNC(=O)c1noc(-c2cc(C(C)C)c(O)cc2O)c1-c1ccc(CN2CCOCC2)cc1 [Luminespib (AUY-922)] | 97.1% | 98.9% | 104% | 104% | 104% | – | – | – | – | – | – | % Enzyme Activity (relative to DMSO controls) (382 unique human kinases [1]): 96.06%; % Enzyme Activity (relative to DMSO controls) (382 unique human kinases [2]): 97.82%; % Enzyme Activity (relative to DMSO controls) (382 unique human kinases [3]): 102.12%; % Enzyme Activity (relative to DMSO controls) (382 unique human kinases [4]): 104.30%; % Enzyme Activity (relative to DMSO controls) (382 unique human kinases [5]): 101.62%
CC(C)c1cc(-c2n[nH]c(=O)n2-c2ccc3c(ccn3C)c2)c(O)cc1O [Ganetespib] | – | – | – | – | – | 7.4% | 106% | 21.9% | 56.7% | 60.1% | 45.5% | –
